Values quoted from earlier work as cited in patent US6410548B1, “Spiropiperidine derivatives as melanocortin receptor agonists” (Merck & Co., Inc., priority 1998, dated 2002).

Experiments:
rodents = conditions: injected ICV; feeding models NPY, ob/ob, agouti, fasted
[1] = test system: non-organic impotent patients; conditions: intramuscular, 0.025 mg/kg and 0.1 mg/kg, 10 non-organic impotent patients
normal male volunteers = conditions: intramuscular, 0.005-0.03 mg/kg, three normal male volunteers

Row | Substance | effect on food intake (rodents) | onset of transient erections [1] | responders (transient erections) [1] | period of intermittent non-painful penile erections after dosing (normal male volunteers)
1 | SHU-9119 | reverses this effect and can induce hyperphagia |  |  | 
2 | melanotan-II [MT-II] | reduces food intake | 50 to 180 min | 8 | 1 to 5 h
